Measurements from patent publication US8383581B2, “Short-chain peptides as parathyroid hormone (PTH) receptor agonist” (Cadila Healthcare Limited, priority 2009, dated 2013).
Where a SMILES comes first, the peptide text is derived from it. [ ]: non-standard residue; d: D form. ξ: configuration not given here. Arg(NO2) = N=C(NCCC[C@H](N)C(=O)O)N[N+](=O)[O-]; ξαMePhe(2,6-F2) = CC(N)(Cc1c(F)cccc1F)C(=O)O; ξαMePhe(2-F) = CC(N)(Cc1ccccc1F)C(=O)O; hArg = N=C(N)NCCCC[C@H](N)C(=O)O; hCit = NC(=O)NCCCC[C@H](N)C(=O)O; Nle = CCCC[C@H](N)C(=O)O; Ac5c = NC1(C(=O)O)CCCC1; Aib = CC(C)(N)C(=O)O

How the values were obtained:
Assay type in all cases: in vitro ADME
[1] = Stability of peptides in simulated gastric fluid (pH 1.5; HCl, NaCl and Pepsin); details: pH 1.5; for % degradation of peptides in 24 h when incubated with simulated gastric fluid: 2 μM
[2] = Stability of peptides in human plasma; details: human, plasma; for metabolised at 24 h, 2 μM: pH 7.8
Outline: (§1)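 Peptides at 2 μM final incubated 0–24 h at 37 °C (50 mM triethanolamine-HCl, pH 7.8) in each matrix, matrix level set to degrade ~50% PTH(1-34) in 1 h; TFA-quenched, C18 HPLC at 206 nm with ESI-MS peak identification; percent degradation from peak areas at each time point.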

[3] = Stability of peptides in human liver microsomes; details: human, microsomes; for % degradation of peptides in 24 h when incubated with liver microsomes: 2 μM, pH 7.8
Outline: as §1

[4] = Stability of peptides in simulated intestinal fluid (pH 7.5); details: pH 7.5; for % degradation of peptides in 24 h when incubated with simulated intestinal fluid: 2 μM
Outline: as §1

Row | SMILES | % degradation of peptides in 24 h when incubated with simulated gastric fluid [1] | half-life ([1]; simulated gi fluid) | half-life [2] | metabolised at 24 h, 2 μM [2] | half-life [3] | % degradation of peptides in 24 h when incubated with liver microsomes [3] | half-life ([4]; simulated gi fluid) | % degradation of peptides in 24 h when incubated with simulated intestinal fluid [4] | half-life (t1/2) in simulated gastric fluid ([1]; simulated gi fluid) | half-life (t1/2) in simulated intestinal fluid ([4]; simulated gi fluid)
1 | CCCC[C@H](NC(=O)C(C)(Cc1c(F)cccc1F)NC(=O)[C@H](CCC(N)=O)NC(=O)[C@@H](NC(=O)[C@H](CCC(=O)O)NC(=O)C(C)(C)NC(=O)[C@@H](NC(=O)C1(N)CCCC1)C(C)C)[C@@H](C)CC)C(=O)N[C@@H](Cc1c[nH]cn1)C(=O)N[C@@H](CCC(N)=O)C(=O)N[C@@H](CCCCNC(N)=O)C(=O)NC(C)(C)C(=O)NC(C)(C)C(=O)NC(C)(Cc1c(F)cccc1F)C(N)=O (stereo partly drawn) [Seq. ID. 440] (H-[Ac5c]V[Aib]EIQ[ξαMePhe(2,6-F2)][Nle]HQ[hCit][Aib][Aib][ξαMePhe(2,6-F2)]-NH2) | 43% | 4 h | > 24 h | 0% | 2 h | 84% | > 24 h | 00% |  | 
2 | CCCC[C@H](NC(=O)C(C)(Cc1ccccc1F)NC(=O)[C@H](CCC(N)=O)NC(=O)[C@@H](NC(=O)[C@H](CCC(=O)O)NC(=O)C(C)(C)NC(=O)[C@@H](NC(=O)C1(N)CCCC1)C(C)C)[C@@H](C)CC)C(=O)N[C@@H](Cc1c[nH]cn1)C(=O)N[C@@H](CCC(N)=O)C(=O)N[C@@H](CCCCNC(N)=O)C(=O)NC(C)(C)C(=O)N[C@@H](CCCNC(=N)N[N+](=O)[O-])C(=O)NC(C)(Cc1ccccc1F)C(N)=O (stereo partly drawn) [Seq. ID. 460] (H-[Ac5c]V[Aib]EIQ[ξαMePhe(2-F)][Nle]HQ[hCit][Aib][Arg(NO2)][ξαMePhe(2-F)]-NH2) | 14% |  | 8 h | 71% | 1 h | 78% |  | 40% | (8) h | (6) h
3 | CCCC[C@H](NC(=O)C(C)(Cc1c(F)cccc1F)NC(=O)[C@H](CCC(N)=O)NC(=O)[C@@H](NC(=O)[C@H](CCC(=O)O)NC(=O)C(C)(C)NC(=O)[C@@H](NC(=O)C1(N)CCCC1)C(C)C)[C@@H](C)CC)C(=O)N[C@@H](Cc1c[nH]cn1)C(=O)N[C@@H](CCC(N)=O)C(=O)N[C@@H](CCCCNC(=N)N)C(=O)NC(C)(C)C(=O)NC(C)(Cc1c(F)cccc1F)C(=O)NC(C)(Cc1c(F)cccc1F)C(N)=O (stereo partly drawn) [Seq. ID. 240] (H-[Ac5c]V[Aib]EIQ[ξαMePhe(2,6-F2)][Nle]HQ[hArg][Aib][ξαMePhe(2,6-F2)][ξαMePhe(2,6-F2)]-NH2) | 14% |  | 8 h | 71% | 1 h | 78% |  | 40% | (8) h | (6) h
